Reference: PubChem BioAssay AID248 (DTP/NCI, 2004)
Several values for one entry are separate records, joined by “and”; a condition that tells them apart may be missing. Equal entries are not always repeated. Toxic doses and inconclusive results are not listed. No stated cut-off is given here; in the data, active means T/C of 150% or more; inactive means T/C below 125%.

Tested on: L1210 leukemia ip in BDF1 mice, survival T/C
Experiment: NCI In Vivo Anticancer Drug Screen. Data for tumor model L1210 Leukemia (intraperitoneal) in B6D2F1 (BDF1) mice
Conditions: endpoint: mean survival time, higher = longer survival
Method in brief: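 Survival endpoint. Drug-treated group vs vehicle group, expressed as T divided by C. Tumor passaged by transplantation.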

[1] = dose: 50.0 mg/kg/injection, schedule: Q01DX009 (ip), vehicle: saline
[2] = dose: 100.0 mg/kg/injection, schedule: Q01DX009 (ip), vehicle: saline
[3] = dose: 100.0 mg/kg/injection, schedule: Q01DX001 (ip), vehicle: Klucel (hydroxypropylcellulose) (HPC)
[4] = dose: 200.0 mg/kg/injection, schedule: Q01DX001 (ip), vehicle: Klucel (hydroxypropylcellulose) (HPC)
[5] = dose: 400.0 mg/kg/injection, schedule: Q01DX001 (ip), vehicle: Klucel (hydroxypropylcellulose) (HPC)
[6] = dose: 100.0 mg/kg/injection, schedule: Q01DX009 (ip), vehicle: saline with Tween-80
[7] = dose: 200.0 mg/kg/injection, schedule: Q01DX009 (ip), vehicle: saline with Tween-80
[8] = dose: 12.5 mg/kg/injection, schedule: Q01DX009 (ip), vehicle: Klucel (hydroxypropylcellulose) (HPC)
[9] = dose: 100.0 mg/kg/injection, schedule: Q01DX009 (ip), vehicle: Klucel (hydroxypropylcellulose) (HPC)
[10] = dose: 100.0 mg/kg/injection, schedule: Q04DX003 (ip), vehicle: Klucel (hydroxypropylcellulose) (HPC)
[11] = dose: 200.0 mg/kg/injection, schedule: Q04DX003 (ip), vehicle: Klucel (hydroxypropylcellulose) (HPC)
[12] = dose: 400.0 mg/kg/injection, schedule: Q01DX009 (ip), vehicle: Klucel (hydroxypropylcellulose) (HPC)
[13] = dose: 400.0 mg/kg/injection, schedule: Q04DX003 (ip), vehicle: Klucel (hydroxypropylcellulose) (HPC)
[14] = dose: 100.0 mg/kg/injection, schedule: Q04DX002 (ip), vehicle: Klucel (hydroxypropylcellulose) (HPC)
[15] = dose: 200.0 mg/kg/injection, schedule: Q04DX002 (ip), vehicle: Klucel (hydroxypropylcellulose) (HPC)
[16] = dose: 400.0 mg/kg/injection, schedule: Q04DX002 (ip), vehicle: Klucel (hydroxypropylcellulose) (HPC)
[17] = dose: 100.0 mg/kg/injection, schedule: Q01DX001 (ip), vehicle: saline
[18] = dose: 200.0 mg/kg/injection, schedule: Q01DX001 (ip), vehicle: saline
[19] = dose: 400.0 mg/kg/injection, schedule: Q01DX001 (ip), vehicle: saline

Measured: T/C

CN1CCC=C(C(=O)N2c3ccccc3CCc3ccccc32)C1
inactive: [1] 107 % of control | [2] 95 % of control | dose: 100.0 mg/kg/injection, schedule: Q04DX003 (ip), vehicle: saline 103 % of control | dose: 200.0 mg/kg/injection, schedule: Q04DX003 (ip), vehicle: saline 92 % of control

C/C=C/c1ccc2oc(-c3ccc(OC4OC(C)C(O)C(O)C4O)cc3)c(C)c2c1 (stereo not given)
inactive: [3] 93 % of control | [4] 90 % of control | [5] 96 % of control

CNC(=O)Oc1cccc(NC(=O)OC2CCCCC2)c1
inactive: [6] 89 % of control | [7] 97 % of control | dose: 400.0 mg/kg/injection, schedule: Q01DX009 (ip), vehicle: saline with Tween-80 89 % of control

Cc1nc(N)[nH]c(=O)c1CCCNS(=O)(=O)c1ccc(C(=O)CBr)cc1
inactive: dose: 100.0 mg/kg/injection, schedule: Q01DX001 (ip), vehicle: carboxymethylcellulose (CMC) 93 % of control | dose: 200.0 mg/kg/injection, schedule: Q01DX001 (ip), vehicle: carboxymethylcellulose (CMC) 87 % of control | dose: 400.0 mg/kg/injection, schedule: Q01DX001 (ip), vehicle: carboxymethylcellulose (CMC) 96 % of control

ClC(Cl)(Cl)c1nccnc1Br
inactive: [8] 111 % of control | dose: 25.0 mg/kg/injection, schedule: Q01DX009 (ip), vehicle: Klucel (hydroxypropylcellulose) (HPC) 94 % of control | dose: 50.0 mg/kg/injection, schedule: Q01DX009 (ip), vehicle: Klucel (hydroxypropylcellulose) (HPC) 94 % of control and 104 % of control

CCN(CC)CCNCc1ccccc1
inactive: dose: 25.0 mg/kg/injection, schedule: Q01DX003 (ip), vehicle: saline 99 % of control | dose: 50.0 mg/kg/injection, schedule: Q01DX003 (ip), vehicle: saline 97 % of control | dose: 75.0 mg/kg/injection, schedule: Q01DX003 (ip), vehicle: saline 99 % of control | dose: 75.0 mg/kg/injection, schedule: Q04DX003 (ip), vehicle: saline 97 % of control

CC1(C)CCC(=NNC(N)=S)CC1
inactive: dose: 5.0 mg/kg/injection, schedule: Q01DX001 (ip), vehicle: carboxymethylcellulose (CMC) 101 % of control | dose: 10.0 mg/kg/injection, schedule: Q01DX001 (ip), vehicle: carboxymethylcellulose (CMC) 97 % of control | dose: 20.0 mg/kg/injection, schedule: Q01DX001 (ip), vehicle: carboxymethylcellulose (CMC) 92 % of control | dose: 40.0 mg/kg/injection, schedule: Q01DX001 (ip), vehicle: carboxymethylcellulose (CMC) 92 % of control

C=CCNC(=S)Nc1cc(Cl)ccc1OC
inactive: [9] 90 % of control | [10] 94 % of control | [11] 92 % of control | [12] 86 % of control | [13] 94 % of control

O=C(CC1(O)C(=O)Nc2ccccc21)CC1(O)C(=O)Nc2ccccc21 (stereo not given)
inactive: dose: 100.0 mg/kg/injection, schedule: Q01DX007 (ip), vehicle: Klucel (hydroxypropylcellulose) (HPC) 110 % of control | [10] 100 % of control | dose: 200.0 mg/kg/injection, schedule: Q01DX007 (ip), vehicle: Klucel (hydroxypropylcellulose) (HPC) 118 % of control | [11] 97 % of control | dose: 400.0 mg/kg/injection, schedule: Q01DX007 (ip), vehicle: Klucel (hydroxypropylcellulose) (HPC) 103 % of control | [13] 92 % of control

CCN(CC)CCOC(=O)c1ccc(N=C=S)cc1
inactive: dose: 12.5 mg/kg/injection, schedule: Q01DX009 (ip), vehicle: saline 102 % of control | dose: 25.0 mg/kg/injection, schedule: Q01DX009 (ip), vehicle: saline 100 % of control | [1] 96 % of control

O=C(Nc1ccc(I)cc1)c1ccc([N+](=O)[O-])cc1
inactive: [14] 99 % of control | [15] 101 % of control | [16] 115 % of control

O=C(Oc1ccc([N+](=O)[O-])cc1)c1ccccc1S(=O)OCCc1ccccc1 (stereo not given)
inactive: dose: 100.0 mg/kg/injection, schedule: Q01DX001 (ip), vehicle: other 92 % of control | dose: 200.0 mg/kg/injection, schedule: Q01DX001 (ip), vehicle: other 95 % of control

Nc1ccc(S(=O)(=O)NC(=O)NCc2ccccc2)cc1
inactive: dose: 100.0 mg/kg/injection, schedule: Q04DX003 (ip), vehicle: saline with Tween-80 101 % of control | dose: 200.0 mg/kg/injection, schedule: Q04DX003 (ip), vehicle: saline with Tween-80 98 % of control | dose: 400.0 mg/kg/injection, schedule: Q04DX003 (ip), vehicle: saline with Tween-80 101 % of control

NC(=S)c1cccc(OCc2ccccc2)c1
inactive: [6] 106 % of control | [7] 92 % of control

OC1c2ccccc2C=Cc2ccccc21
inactive: [10] 104 % of control | [11] 101 % of control | [13] 101 % of control

CCC(=O)C(c1ccccc1)(c1ccccc1)C(C)CN(C)C (stereo not given)
inactive: dose: 5.0 mg/kg/injection, schedule: Q01DX001 (ip), vehicle: saline 102 % of control | dose: 10.0 mg/kg/injection, schedule: Q01DX001 (ip), vehicle: saline 104 % of control | dose: 20.0 mg/kg/injection, schedule: Q01DX001 (ip), vehicle: saline 96 % of control | dose: 40.0 mg/kg/injection, schedule: Q01DX001 (ip), vehicle: saline 87 % of control

CC1CCc2cccc(NC(=O)NCCCl)c21 (stereo not given)
inactive: [3] 99 % of control | [10] 92 % of control | [4] 91 % of control | [11] 92 % of control | [5] 96 % of control | [13] 92 % of control

O=C(Nc1ccccc1C(=O)NC1CCCC1)NC1CCCC1
inactive: [10] 89 % of control | [11] 94 % of control

O=C(Nc1cccc(Cl)c1)Nc1cccc(Br)c1
inactive: [14] 96 % of control | [15] 88 % of control | [16] 118 % of control

CCc1ncc(N2C3CCCC2CC(=O)C3)[nH]1
inactive: dose: 75.0 mg/kg/injection, schedule: Q01DX001 (ip), vehicle: saline 98 % of control | dose: 150.0 mg/kg/injection, schedule: Q01DX001 (ip), vehicle: saline 98 % of control

COc1c2ccoc2cc2oc(C)cc(=O)c12
inactive: dose: 37.5 mg/kg/injection, schedule: Q01DX001 (ip), vehicle: carboxymethylcellulose (CMC) 103 % of control | dose: 75.0 mg/kg/injection, schedule: Q01DX001 (ip), vehicle: carboxymethylcellulose (CMC) 100 % of control | dose: 150.0 mg/kg/injection, schedule: Q01DX001 (ip), vehicle: carboxymethylcellulose (CMC) 108 % of control

O=C(O)c1cc(=O)c2cccc(Cl)c2[nH]1
inactive: dose: 50.0 mg/kg/injection, schedule: Q04DX002 (ip), vehicle: Klucel (hydroxypropylcellulose) (HPC) 103 % of control | [14] 100 % of control | [15] 96 % of control

O=S(=O)(/C=C/c1ccc(Cl)cc1)c1ccccc1
inactive: [17] 102 % of control | [2] 91 % of control | [18] 104 % of control | dose: 200.0 mg/kg/injection, schedule: Q01DX009 (ip), vehicle: saline 96 % of control | [19] 102 % of control | dose: 400.0 mg/kg/injection, schedule: Q01DX009 (ip), vehicle: saline 94 % of control

O=C(c1ccccc1)C(O)(CC(c1ccccc1)[P+](c1ccccc1)(c1ccccc1)c1ccccc1)c1ccccc1 (stereo not given)
inactive: dose: 1.75 mg/kg/injection, schedule: Q01DX009 (ip), vehicle: saline 93 % of control | dose: 3.5 mg/kg/injection, schedule: Q01DX009 (ip), vehicle: saline 93 % of control | dose: 6.25 mg/kg/injection, schedule: Q01DX009 (ip), vehicle: Klucel (hydroxypropylcellulose) (HPC) 102 % of control | [8] 107 % of control | dose: 400.0 mg/kg/injection, schedule: Q01DX001 (ip), vehicle: saline with Tween-80 87 % of control

O=C(COc1ccc(Cl)cc1)Nc1ccccc1C(F)(F)F
inactive: [9] 102 % of control and 89 % of control | [10] 103 % of control | dose: 200.0 mg/kg/injection, schedule: Q01DX009 (ip), vehicle: Klucel (hydroxypropylcellulose) (HPC) 100 % of control | [11] 106 % of control | [12] 98 % of control | [13] 93 % of control

c1ccc(C(NC(c2ccccc2)c2ccccc2)c2ccccc2)cc1
inactive: dose: 50.0 mg/kg/injection, schedule: Q01DX001 (ip), vehicle: saline 91 % of control | [17] 97 % of control | [18] 93 % of control | [19] 97 % of control
